Laboratory results: PMC3511314, “Functional Characterization of Two M42 Aminopeptidases Erroneously Annotated as Cellulases” (PLoS ONE, 2012)

Experiments:
Type in all cases: biochemical
TmPep1050 [1] = target: T1, TmPep1050 (Thermotoga maritima, UniProt Q9X0E0); experiment: specific activity of pNA hydrolysis at […] substrate
T1 construct: gene TM_1050; recombinant TmPep1050 (TM1050 ORF)
T1 sequence (Q9X0E0 1-331): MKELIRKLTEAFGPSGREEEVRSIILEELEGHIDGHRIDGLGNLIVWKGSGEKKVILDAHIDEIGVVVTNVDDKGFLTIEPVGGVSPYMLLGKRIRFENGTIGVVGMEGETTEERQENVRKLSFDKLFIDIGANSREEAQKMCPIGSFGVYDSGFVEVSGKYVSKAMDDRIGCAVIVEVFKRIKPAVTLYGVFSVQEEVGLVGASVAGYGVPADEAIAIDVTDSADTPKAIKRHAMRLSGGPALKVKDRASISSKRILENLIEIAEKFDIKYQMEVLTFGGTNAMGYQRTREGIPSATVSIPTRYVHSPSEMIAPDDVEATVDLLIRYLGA

CelM [2] = target: T2, CelM (Acetivibrio thermocellus, UniProt P55742); experiment: specific activity of pNA hydrolysis at […] substrate
T2 construct: recombinant CelM bearing a C-terminal hexahistidine tag
T2 sequence (P55742 1-330): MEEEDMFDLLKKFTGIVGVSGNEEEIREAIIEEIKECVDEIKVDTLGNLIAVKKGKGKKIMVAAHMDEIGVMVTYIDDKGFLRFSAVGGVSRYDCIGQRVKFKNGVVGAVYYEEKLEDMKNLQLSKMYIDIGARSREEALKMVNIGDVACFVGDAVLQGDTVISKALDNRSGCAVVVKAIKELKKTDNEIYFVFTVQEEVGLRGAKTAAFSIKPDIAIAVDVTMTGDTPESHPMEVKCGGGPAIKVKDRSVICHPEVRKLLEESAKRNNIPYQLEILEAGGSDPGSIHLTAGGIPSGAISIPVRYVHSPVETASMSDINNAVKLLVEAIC

TmPep1050 [3] = target: T1, TmPep1050; experiment: inhibition of leucine aminopeptidase activity of purified enzyme, apparent Ki
CelM [4] = target: T2, CelM; experiment: as above

CC(C)[C@H](N)C(=O)Nc1ccc([N+](=O)[O-])cc1 [L-Val-pNA]
TmPep1050 sp act (TmPep1050 [1]): 14.3±1.8 µmol min^−1 µmol^−1 | CelM sp act (CelM [2]): 8.4±0.016 µmol min^−1 µmol^−1

CC(C)C[C@H](NC(=O)[C@@H](O)[C@H](N)Cc1ccccc1)C(=O)O [bestatin]
Ki (TmPep1050 [3]): 432 ± 72 nM | Ki (CelM [4]): 292 ± 66 nM
